In patent EP0536424A1, “NOVEL BENZOPYRAN DERIVATIVE” (Japan Tobacco Inc., priority 1991, dated 1992):
Read-outs that look alike come from different tables or passages of the source.

Key:
coronary blood flow rate = assay: Action on the coronary blood flow rate in dog (anesthetized, left coronary artery perfused with femoral arterial blood); type: in vivo; conditions: administered into the coronary artery; for ED 50: dose increasing coronary blood flow rate by 50% of the reaction caused by niphedipine 1 µg (set at 100%); for Durationng: time during which the compound produced at least 50% of its efficacy at the ED₅₀ dosage
Protocol: Dogs with ether sex were anesthetized with pentobarbital (30 mg/kg,intravenous administration), followed by intravenous heparin administration (500 U/kg) to the dogs under artificial respiration. Then, according to Yago's method described in Folia pharmacol. japon., 57,380 (1961), the left coronary artery was perfused with the right femoral arterial blood so as to measure the blood perfusion amount with an electromagnetic blood flow meter. The example compound was administered into the coronary artery by using a micro syringe just before a stainless steel cannula inserted into the coronary artery. The increase in the coronary blood flow rate caused by the example compound was determined by standardizing the reactivity among the specimen subject, with the reaction caused by the niphedipine administration (1 µg) into the coronary artery of the specimen subject being set at 100%. To be more specific, the intensity of the action due to the example compound was determined in terms of ED₅₀ required for increasing the coronary blood flow rate by 50% on the basis of the reaction caused by niphedipine administered into the coronary artery in an amount of 1 µg. Further, the duration of the effect produced by the example compound was determined in terms of the time (minutes) during which the compound produced at least 50% of efficacy on the basis that the efficacy of the compound in the ED₅₀ dosage noted above was set at 100%. […]

[1] = test system: aorta thoracica of a male Wister rat; assay: Blood vessel relaxing action (relaxation of phenylephrine-contracted, endothelium-denuded spiral strip); conditions: concentration inhibiting 50% of the contraction achieved by phenylephrine (10⁻⁶ M), compound 10⁻⁸ to 10⁻⁵ M added cumulatively, 37°C, read-out: IC₅₀
Protocol: Preparation of the extracted blood vessel sample and the experiment were conducted by the methods of Toda et al. described in J. Cardiovasc. Pharmacol., 7,1118 (1985). The aorta thoracica of a male Wister rat was used as a sample. To be more specific, a spiral piece was prepared by peeling endothelium about 1 cm long from the artery to provide the sample. The endothelium was peeled off by rubbing with a swab. A Krebs-Hensterite solution of 37°C saturated with 95% O₂ and 5% CO₂ was used as a nutrient solution. After application of 1g as suspending load to the sample, changes in tension were measured by rectigraph via an isometric transducer. After the aorta thoracica was contracted by phenylephrine (10⁻⁶ M), a compound to be examined (an example compound) of 10⁻⁸ to 10⁻⁵ M was cumulatively added to determine the relaxing action of the compound quantitatively. The relaxing effect of the example compound was determined in terms of the concentration IC₅₀ of the compound required for inhibiting 50% of the contraction achieved by phenylephrine (10⁻⁶ M). Lema Kalin was used as reference compound A. On the other hand, reference compound B was provided by N'-cyano-N-(trans-6-cyano-3,4-dihydro-2,2-dimethyl-3-hydroxy-2H-1-benzopyran-4-yl)-benzamidine. […]

SMILES	ED 50 (coronary blood flow rate)	Durationng (coronary blood flow rate)	IC50 ([1]; Rattus norvegicus)	IC50 [1]
CC1(C)Oc2ccc(C#N)cc2[C@@H](NC(=NC#N)c2cccnc2)[C@@H]1O (relative stereo) [Example 3, N'-cyano-N-(trans-6-cyano-3,4-dihydro-2,2-dimethyl-3-hydroxy-2H-1benzopyran-4-yl]-3-pyridinecarboxamidine]	1.9 µg	4.0 minuted	600 nM	
CC1(C)Oc2ccc(C#N)cc2[C@@H](NC(=N[N+](=O)[O-])c2ccccn2)[C@@H]1O (relative stereo) [Example 14, N-(trans-6-cyano-3,4-dihydro-2,2-dimethyl-3-hydroxy-2H-1-benzopyran-4yl)-N'-nitro-2-pyridinecarboxamidine]			1000 nM	
CC1(C)Oc2ccc(C#N)cc2[C@@H](NC(=NC#N)c2ccc(F)cc2)[C@@H]1O (relative stereo) [Example 16, N'-cyano-N-(trans-6-cyano-3,4-dihydro-2,2-dimethyl-3-hydroxy-2H-1-benzopyran-4-yl)-4-fluorobenzamidine]	1.5 µg	2.5 minuted	60 nM	
CC1(C)Oc2ccc(C#N)cc2[C@@H](NC(=NC#N)c2ccccc2)[C@@H]1O (relative stereo) [Reference Compound B, N'-cyano-N-(trans-6-cyano-3,4-dihydro-2,2-dimethyl-3-hydroxy-2H-1-benzopyran-4-yl)-benzamidine, reference compound]	4.2 µg	1.9 minuted	1000 nM	
CC1(C)Oc2ccc(C#N)cc2[C@@H](N2CCCC2=O)[C@@H]1O [Reference Compound A, Lema Kalin, reference compound]	1.1 µg	2.5 minuted		400 nM
